Experimental findings from patent publication US12599672B2, “KRAS proteolysis targeting chimeras” (PAQ Therapeutics Inc., priority 2023, dated 2026) are described below.

Holding throughout (type): cell-based
For test [1], the target named is T1, KRAS G12V (Homo sapiens, UniProt P01116, G12V).
T1 construct: SW620-KRAS (G12V)-HiBit-KI cell (Pharmaron); host or cells: SW620-KRAS (G12V)-HiBit-KI cells (HiBiT knock-in at the endogenous KRAS locus)
Description: KRAS G12V HiBit assay. The settings on record: SW620-KRAS (G12V)-HiBit-KI cells, compound treatment for 24 hours, class symbols. An outline of the steps: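 HiBiT-tagged KRAS G12V cells treated 24 h with compound in a 3-fold, 10-point series (0.3 mM DMSO stock); lytic HiBiT reagent with LgBiT added after 15 min room-temperature equilibration. Degradation calculated against 0.1% DMSO high control.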

The target in test [2] is T2, KRAS G12D (Homo sapiens, UniProt P01116, G12D).
T2 construct: AsPc-1-KRAS (G12D)-HiBit-KI cell (Pharmaron); host or cells: AsPc-1-KRAS (G12D)-HiBit-KI cells (HiBiT knock-in at the endogenous KRAS locus)
T2 sequence (P01116 1-188 isoform P01116-2 G12D): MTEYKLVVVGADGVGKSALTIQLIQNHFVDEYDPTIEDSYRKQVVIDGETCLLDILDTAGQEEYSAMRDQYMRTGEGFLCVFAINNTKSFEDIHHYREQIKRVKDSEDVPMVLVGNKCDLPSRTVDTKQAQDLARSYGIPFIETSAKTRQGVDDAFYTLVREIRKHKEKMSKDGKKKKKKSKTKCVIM
Description: KRAS G12D HiBit assay. The following applies: AsPc-1-KRAS (G12D)-HiBit-KI cell, compound treatment for 24 hours; for DC50: absolute DC50. An outline of the steps:
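Cells were treated for 24 h with compounds in a 3-fold, 10-point dilution series from a 0.3 mM DMSO stock, then equilibrated 15 min at room temperature. KRAS G12D HiBiT levels were read by luminescence after lytic Nano-Glo HiBiT reagent with LgBiT; inhibition calculated relative to 0.1% DMSO high control.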

The target of test [3] is T3, KRAS (Homo sapiens, UniProt P01116).
T3 construct: endogenous in cells; host or cells: KE39 (KRAS amplified) cells
T3 sequence (P01116 1-188 isoform P01116-2): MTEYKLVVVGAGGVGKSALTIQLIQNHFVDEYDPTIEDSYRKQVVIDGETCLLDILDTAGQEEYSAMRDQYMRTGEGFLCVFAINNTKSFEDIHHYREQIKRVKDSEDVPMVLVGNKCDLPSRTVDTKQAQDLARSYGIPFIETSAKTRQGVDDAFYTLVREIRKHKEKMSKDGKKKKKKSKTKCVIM
Kind of test: KRASamp MSD assay. The settings on record: KE39 (KRAS amplified) cells, treated with test compounds for 24 hr, MSD readout of KRAS degradation. The procedure: KE39 (KRAS amplified) cells were cultured in RPMI 1640 medium (Gibco, 11875093), seeded into 96 well plate and treated with test compounds for 24 hr. The cells were washed with PBS and lysed in plate for 1 hr at 4° C. with agitation in RIPA buffer (Cat No. BP-115D) supplemented with protease and phosphatase inhibitor cocktail. The lysates were loaded into MSD plate coated with KRAS capture antibody (LSBio, C175665, 1:1000) for 1 h at RT with agitation. The plate was then washed three times with TBST and incubated with KRAS detection antibody (Abcam, Ab275876. 1:2000) for 1 h at RT. After washing three times with TBST, the plate was incubated with secondary detection antibody GAR (1:500) for 1 hr at RT followed with 3×TBST washing. 2×MSD reading buffer was added into individual wells and the plate was finally read by MSD reader (MSD, SQ 120 MM). The recombinant WT KRAS protein was used for standard curve generation and protein quantification. The degradation activity was calculated using the following formula: […]
DC50 was calculated by fitting the curve using GraphPad Prism v8.0.2 (analysis 263): […]

[4] abbreviates: numeric bounds given in place of class symbols.

T1 sequence (P01116 1-188 isoform P01116-2 G12V): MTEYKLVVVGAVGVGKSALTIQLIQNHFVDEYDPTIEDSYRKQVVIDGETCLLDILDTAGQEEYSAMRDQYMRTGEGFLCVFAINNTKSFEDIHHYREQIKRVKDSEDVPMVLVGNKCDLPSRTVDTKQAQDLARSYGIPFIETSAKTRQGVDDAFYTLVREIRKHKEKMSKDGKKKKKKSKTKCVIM

For the molecule `C#Cc1c(F)ccc2cc(O)cc(-c3ncc4c(N5CCC[C@@](C)(O)C5)nc(OC[C@@]56CCCN5[C@H](COC(=O)N5CCCC7(C5)CN(C5CCN(c8ccc9c(c8)n(C)c(=O)n9C8CCC(=O)NC8=O)CC5)C7)CC6)nc4c3F)c12` (stereo partly drawn) [Compound 328, ((3S,7aS)-7a-(((7-(8-ethynyl-7-fluoro-3-hydroxynaphthalen-1-yl)-8-fluoro-4-((R)-3-hydroxy-3-methylpiperidin-1-yl)pyrido[4,3-d]pyrimidin-2-yl)oxy)methyl)hexahydro-1H-pyrrolizin-3-yl)methyl 2-(1-(1-(2,6-dioxopiperidin-3-yl)-3-methyl-2-oxo-2,3-dihydro-1H-benzo[d]imidazol-5-yl)piperidin-4-yl)-2,6-diazaspiro[3.5]nonane-6-carboxylate], the DC50 in test [1] is greater than 100 nM; in test [2] (setting [4]), greater than 100 nM; in test [3] it was no less than 10 nM.

`CCc1c(F)ccc2cc(O)cc(-c3ncc4c(N5CCC[C@@](C)(O)C5)nc(OC[C@]56CCCN5[C@H](COC(=O)NC5CCCN(c7ccc8c(c7)n(C)c(=O)n8C7CCC(=O)NC7=O)C5)CC6)nc4c3F)c12` (stereo partly drawn) [Compound 309, ((3S,7aR)-7a-(((7-(8-ethyl-7-fluoro-3-hydroxynaphthalen-1-yl)-8-fluoro-4-((R)-3-hydroxy-3-methylpiperidin-1-yl)pyrido[4,3-d]pyrimidin-2-yl)oxy)methyl)hexahydro-1H-pyrrolizin-3-yl)methyl (1-(1-(2,6-dioxopiperidin-3-yl)-3-methyl-2-oxo-2,3-dihydro-1H-benzo[d]imidazol-5-yl)piperidin-3-yl)carbamate]: the DC50 is 10 to 100 nM in test [1], greater than 100 nM in test [2] (setting [4]) and 1 to 10 nM in test [3].

Turning to `CCc1c(F)ccc2cc(O)cc(-c3ncc4c(N5CCC[C@@](C)(O)C5)nc(OC[C@@]56CCCN5[C@H](COC(=O)N5CCC(CN7CCC(c8ccc9c(c8)n(C)c(=O)n9C8CCC(=O)NC8=O)CC7)CC5)CC6)nc4c3F)c12` (stereo partly drawn) [Compound 1, [(3S,8S)-8-[[7-(8-Ethyl-7-fluoro-3-hydroxy-1-naphthyl)-8-fluoro-4-[(3R)-3-hydroxy-3-methyl-1-piperidyl]pyrido[4,3-d]pyrimidin-2-yl]oxymethyl]-1,2,3,5,6,7-hexahydropyrrolizin-3-yl]methyl 4-[[4-[1-(2,6-dioxo-3-piperidyl)-3-methyl-2-oxo-benzimidazol-5-yl]-1-piperidyl]methyl]piperidine-1-carboxylate], the DC50 is less than 10 nM in test [1], less than 100 nM in test [2] (class symbols) and less than 1 nM in test [3]. Further, the “Average Dmax” value in test [2] (class symbols) is “A (Dmax greater than 50%)”.

As to `CCc1c(F)ccc2cc(O)cc(-c3ncc4c(N5CCC[C@@](C)(O)C5)nc(OC[C@@]56CCCN5[C@H](COC(=O)N5CCC(C)(CN7CCC(c8ccc9c(c8)n(C)c(=O)n9C8CCC(=O)NC8=O)CC7)CC5)CC6)nc4c3F)c12` (stereo partly drawn) [Compound 157, ((3S,7aS)-7a-(((7-(8-Ethyl-7-fluoro-3-hydroxynaphthalen-1-yl)-8-fluoro-4-((R)-3-hydroxy-3-methylpiperidin-1-yl)pyrido[4,3-d]pyrimidin-2-yl)oxy)methyl)hexahydro-1H-pyrrolizin-3-yl)methyl 4-((4-(1-(2,6-dioxopiperidin-3-yl)-3-methyl-2-oxo-2,3-dihydro-1H-benzo[d]imidazol-5-yl)piperidin-1-yl)methyl)-4-methylpiperidine-1-carboxylate], the DC50 is less than 10 nM in test [1], greater than 100 nM in test [2] (setting [4]) and less than 1 nM in test [3].

For the molecule `CCc1c(F)ccc2cc(O)cc(-c3ncc4c(N5CCC[C@@](C)(O)C5)nc(OC[C@]56CCCN5[C@@H](COC(=O)N5CCC(CN7CCC(c8ccc9c(c8)n(C)c(=O)n9C8CCC(=O)NC8=O)CC7)CC5)CC6)nc4c3F)c12` (stereo partly drawn) [Compound 120, ((3R,7aR)-7a-(((7-(8-Ethyl-7-fluoro-3-hydroxynaphthalen-1-yl)-8-fluoro-4-((R)-3-hydroxyl-3-methylpiperidin-1-yl)pyrido[4,3-d]pyrimidin-2-yl)oxy)methyl)hexahydro-1H-pyrrolizin-3-yl)methyl4-((4-(1-(2,6-dioxopiperidin-3-yl)-3-methyl-2-oxo-2,3-dihydro-1H-benzo[d]imidazol-5-yl)piperidin-1-yl)methyl) piperidine-1-carboxylate], the figures for the DC50 in test [1], in test [2] (class symbols) and in test [3] were less than 10 nM, less than 100 nM and less than 1 nM, respectively.

For `CCc1c(F)ccc2cc(O)cc(-c3ncc4c(N5CCC[C@@](C)(O)C5)nc(OC[C@]56CCCN5[C@H](COC(=O)N5CCC(c7ccc8c(c7)n(C)c(=O)n8C7CCC(=O)NC7=O)CC5)CC6)nc4c3F)c12` (stereo partly drawn) [Compound 307, ((3S,7aR)-7a-(((7-(8-ethyl-7-fluoro-3-hydroxynaphthalen-1-yl)-8-fluoro-4-((R)-3-hydroxy-3-methylpiperidin-1-yl)pyrido[4,3-d]pyrimidin-2-yl)oxy)methyl)hexahydro-1H-pyrrolizin-3-yl)methyl 4-(1-(2,6-dioxopiperidin-3-yl)-3-methyl-2-oxo-2,3-dihydro-1H-benzo[d]imidazol-5-yl)piperidine-1-carboxylate], the values for the DC50 in test [1], in test [2] (class symbols) and in test [3] were greater than 100 nM, less than 100 nM and 1 to 10 nM, respectively.

Take `C#Cc1c(F)ccc2cc(O)cc(-c3ncc4c(N5CCC[C@@](C)(O)C5)nc(OC[C@@]56CCCN5[C@H](COC(=O)N5CCC7(CCC7N7CCC(c8ccc9c(c8)n(C)c(=O)n9C8CCC(=O)NC8=O)CC7)CC5)CC6)nc4c3F)c12` (stereo partly drawn) [Compound 415, ((3S,7aS)-7a-(((7-(8-ethynyl-7-fluoro-3-hydroxynaphthalen-1-yl)-8-fluoro-4-((R)-3-hydroxy-3-methylpiperidin-1-yl)pyrido[4,3-d]pyrimidin-2-yl)oxy)methyl)hexahydro-1H-pyrrolizin-3-yl)methyl 1-(4-(1-(2,6-dioxopiperidin-3-yl)-3-methyl-2-oxo-2,3-dihydro-1H-benzo[d]imidazol-5-yl)piperidin-1-yl)-7-azaspiro[3.5]nonane-7-carboxylate]: the figures for the DC50 in test [1], in test [2] (class symbols) and in test [3] were greater than 100 nM, less than 100 nM and no less than 10 nM, respectively.

Take `CCc1c(F)ccc2cc(O)cc(-c3ncc4c(N5CCC[C@H](N)C5)nc(OC[C@@]56CCCN5[C@H](COC(=O)N5CCC7(CC5)CC(N5CCC(c8ccc9c(c8)n(C)c(=O)n9C8CCC(=O)NC8=O)CC5)C7)CC6)nc4c3F)c12` (stereo partly drawn) [Compound 477, ((3S,7aS)-7a-(((4-((S)-3-aminopiperidin-1-yl)-7-(8-ethyl-7-fluoro-3-hydroxynaphthalen-1-yl)-8-fluoropyrido[4,3-d]pyrimidin-2-yl)oxy)methyl)hexahydro-1H-pyrrolizin-3-yl)methyl 2-(4-(1-(2,6-dioxopiperidin-3-yl)-3-methyl-2-oxo-2,3-dihydro-1H-benzo[d]imidazol-5-yl)piperidin-1-yl)-7-azaspiro[3.5]nonane-7-carboxylate]: the DC50 was greater than 100 nM in test [1], greater than 100 nM in test [2] (setting [4]) and no less than 10 nM in test [3].

For `CCc1c(F)ccc2cc(O)cc(-c3ncc4c(N5CCC[C@@](C)(O)C5)nc(OC[C@@]56CCCN5[C@H](COC(=O)NC5CCN(C7CCN(c8ccc9c(c8)n(C)c(=O)n9C8CCC(=O)NC8=O)CC7)CC5)CC6)nc4c3F)c12` (stereo partly drawn) [Compound 427, ((3S,7aS)-7a-(((7-(8-ethyl-7-fluoro-3-hydroxynaphthalen-1-yl)-8-fluoro-4-((R)-3-hydroxy-3-methylpiperidin-1-yl)pyrido[4,3-d]pyrimidin-2-yl)oxy)methyl)hexahydro-1H-pyrrolizin-3-yl)methyl (1′-(1-(2,6-dioxopiperidin-3-yl)-3-methyl-2-oxo-2,3-dihydro-1H-benzo[d]imidazol-5-yl)-[1,4′-bipiperidin]-4-yl)carbamate], the DC50 was 10 to 100 nM in test [1], less than 100 nM in test [2] (class symbols) and no less than 10 nM in test [3].

As for `CCc1c(F)ccc2cc(O)cc(-c3ncc4c(N5CCC[C@@](C)(O)C5)nc(OCC5(CN6CCN(CC7CCN(c8ccc9c(c8)n(C)c(=O)n9C8CCC(=O)NC8=O)CC7)CC6)CC5)nc4c3F)c12` (stereo partly shown) [Compound 34], the figures for the DC50 in test [1], in test [2] (class symbols) and in test [3] were less than 10 nM, less than 100 nM and less than 1 nM, respectively.
